Measurements as given in article PMC4642525, “Conjugates of γ-Carbolines and Phenothiazine as new selective inhibitors of butyrylcholinesterase and blockers of NMDA receptors for Alzheimer Disease” (Scientific Reports, 2015).
“Also recorded” adds a separate entry of the source. Like-named read-outs stand apart in the source and are kept apart here.

What was measured:
[1] = molecular target: T1, carboxylesterase (CaE, EC 3.1.1.1, from porcine liver) (Sus scrofa, UniProt Q29550); assay: In vitro CaE inhibition (4-nitrophenyl acetate hydrolysis); type: biochemical; details: pH 8.0, 25 °C, 10 min preincubation, read-out: IC50 (μM) ± SEM CaE
T1 sequence (Q29550 19-566): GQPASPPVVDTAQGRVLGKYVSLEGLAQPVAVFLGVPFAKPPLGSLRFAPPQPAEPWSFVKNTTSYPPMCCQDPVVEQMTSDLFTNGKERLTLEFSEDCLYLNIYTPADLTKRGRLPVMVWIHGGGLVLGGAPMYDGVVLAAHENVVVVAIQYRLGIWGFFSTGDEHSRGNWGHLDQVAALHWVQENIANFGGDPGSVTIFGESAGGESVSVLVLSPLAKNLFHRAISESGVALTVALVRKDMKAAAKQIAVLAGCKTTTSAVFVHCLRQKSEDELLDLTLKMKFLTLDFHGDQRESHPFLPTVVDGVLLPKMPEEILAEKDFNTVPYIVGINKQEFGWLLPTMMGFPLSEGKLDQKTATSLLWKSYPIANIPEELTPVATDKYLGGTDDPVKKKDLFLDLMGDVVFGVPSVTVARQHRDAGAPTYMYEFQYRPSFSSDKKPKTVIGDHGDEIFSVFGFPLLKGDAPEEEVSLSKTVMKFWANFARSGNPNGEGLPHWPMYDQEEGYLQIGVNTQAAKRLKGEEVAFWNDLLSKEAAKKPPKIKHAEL
Experimental: (§1) Acetylcholinesterase (AChE, EC 3.1.1.7, from human erythrocyte), butyrylcholinesterase (BChE, EC 3.1.1.8, from equine serum), carboxylesterase (CaE, EC 3.1.1.1, from porcine liver), acetylthiocholine iodide (ATCh), butylthiocholine iodide (BTCh), 5,5´-dithiobis-(2-nitrobenzoic acid) (DTNB), 4-nitrophenyl acetate (4-NPA), were purchased from Sigma-Aldrich (Germany).
The activity of CaE was determined spectrophotometrically by the release of 4-nitrophenol at 405 nm[51]. The assay solution consisted of 0.1 M K/Na phosphate buffer pH 8.0, 25 °C with the addition of 1 mM 4-nitrophenyl acetate and 0.02 unit/mL of CaE. Assays were carried out with a blank containing all components except CaE.
(§2) The tested compounds were dissolved in DMSO; the incubation mixture contained 2% of the solvent. […] The test compounds were added to the assay solution and preincubated at 25 °C with the enzymes for 10 min followed by the addition of substrate. A parallel control was made for the assay solution with no inhibitor. Measurements were performed in a BioRad Benchmark Plus microplate spectrophotometer (France). Each experiment was performed in triplicate. The results were expressed as the mean ± SEM. The reaction rates in the presence and absence of inhibitor were compared, and the percent of residual enzyme activity due to the presence of test compounds was calculated.

[2] = molecular target: T2, butyrylcholinesterase (BChE, EC 3.1.1.8, from equine serum) (Equus caballus, UniProt P81908); assay: biochemical; type: biochemical
T2 construct: butyrylcholinesterase (BChE, EC 3.1.1.8, from equine serum); purchased Sigma-Aldrich (Germany); host or cells: equine serum
T2 sequence (P81908 whole entry): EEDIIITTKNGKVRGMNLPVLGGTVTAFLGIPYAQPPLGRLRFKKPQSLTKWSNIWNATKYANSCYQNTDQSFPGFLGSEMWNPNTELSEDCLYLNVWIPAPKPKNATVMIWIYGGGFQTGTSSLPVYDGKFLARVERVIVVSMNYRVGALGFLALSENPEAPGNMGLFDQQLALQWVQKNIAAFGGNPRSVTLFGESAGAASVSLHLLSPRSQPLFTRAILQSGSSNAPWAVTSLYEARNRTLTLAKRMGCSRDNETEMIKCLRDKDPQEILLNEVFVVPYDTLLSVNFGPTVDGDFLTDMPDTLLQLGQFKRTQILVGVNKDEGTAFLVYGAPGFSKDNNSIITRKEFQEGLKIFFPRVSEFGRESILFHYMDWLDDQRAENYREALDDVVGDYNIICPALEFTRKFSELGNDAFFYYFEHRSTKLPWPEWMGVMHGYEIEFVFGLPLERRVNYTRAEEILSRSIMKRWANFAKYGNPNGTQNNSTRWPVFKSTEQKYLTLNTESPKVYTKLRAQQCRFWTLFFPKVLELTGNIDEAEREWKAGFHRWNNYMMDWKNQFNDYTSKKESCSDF
Experimental: as §1
(§3) AChE and BChE activities were measured by the method of Ellman and coworkers as described earlier. The assay solution consisted of 0.1 M K/Na phosphate buffer pH 7.5, 25 °C with the addition of 0.33 mM DTNB, 0.02 unit/mL of AChE or BChE and 1 mM of substrate (ATCh or BTCh, respectively). Assays were carried out with a blank containing all components except ATCh and BTCh in order to account for non-enzymatic reaction.
as §2

[3] = molecular target: T3, ifenprodil binding site of NMDA receptor (NR2B subunit containing) (Rattus norvegicus, UniProt P35439+Q00960); assay: Radioligand binding, [3H]ifenprodil site of NMDA receptor, hippocampal membranes; details: for % of [3H]ifenprodil blockade at 100 μM of compound: 100 μM compound
T3 construct: A membrane preparation of hippocampus for radioligand analysis was prepared; from tissue; host or cells: rat hippocampal membranes
T3 sequence (Q00960 27-1482, other chains not shown): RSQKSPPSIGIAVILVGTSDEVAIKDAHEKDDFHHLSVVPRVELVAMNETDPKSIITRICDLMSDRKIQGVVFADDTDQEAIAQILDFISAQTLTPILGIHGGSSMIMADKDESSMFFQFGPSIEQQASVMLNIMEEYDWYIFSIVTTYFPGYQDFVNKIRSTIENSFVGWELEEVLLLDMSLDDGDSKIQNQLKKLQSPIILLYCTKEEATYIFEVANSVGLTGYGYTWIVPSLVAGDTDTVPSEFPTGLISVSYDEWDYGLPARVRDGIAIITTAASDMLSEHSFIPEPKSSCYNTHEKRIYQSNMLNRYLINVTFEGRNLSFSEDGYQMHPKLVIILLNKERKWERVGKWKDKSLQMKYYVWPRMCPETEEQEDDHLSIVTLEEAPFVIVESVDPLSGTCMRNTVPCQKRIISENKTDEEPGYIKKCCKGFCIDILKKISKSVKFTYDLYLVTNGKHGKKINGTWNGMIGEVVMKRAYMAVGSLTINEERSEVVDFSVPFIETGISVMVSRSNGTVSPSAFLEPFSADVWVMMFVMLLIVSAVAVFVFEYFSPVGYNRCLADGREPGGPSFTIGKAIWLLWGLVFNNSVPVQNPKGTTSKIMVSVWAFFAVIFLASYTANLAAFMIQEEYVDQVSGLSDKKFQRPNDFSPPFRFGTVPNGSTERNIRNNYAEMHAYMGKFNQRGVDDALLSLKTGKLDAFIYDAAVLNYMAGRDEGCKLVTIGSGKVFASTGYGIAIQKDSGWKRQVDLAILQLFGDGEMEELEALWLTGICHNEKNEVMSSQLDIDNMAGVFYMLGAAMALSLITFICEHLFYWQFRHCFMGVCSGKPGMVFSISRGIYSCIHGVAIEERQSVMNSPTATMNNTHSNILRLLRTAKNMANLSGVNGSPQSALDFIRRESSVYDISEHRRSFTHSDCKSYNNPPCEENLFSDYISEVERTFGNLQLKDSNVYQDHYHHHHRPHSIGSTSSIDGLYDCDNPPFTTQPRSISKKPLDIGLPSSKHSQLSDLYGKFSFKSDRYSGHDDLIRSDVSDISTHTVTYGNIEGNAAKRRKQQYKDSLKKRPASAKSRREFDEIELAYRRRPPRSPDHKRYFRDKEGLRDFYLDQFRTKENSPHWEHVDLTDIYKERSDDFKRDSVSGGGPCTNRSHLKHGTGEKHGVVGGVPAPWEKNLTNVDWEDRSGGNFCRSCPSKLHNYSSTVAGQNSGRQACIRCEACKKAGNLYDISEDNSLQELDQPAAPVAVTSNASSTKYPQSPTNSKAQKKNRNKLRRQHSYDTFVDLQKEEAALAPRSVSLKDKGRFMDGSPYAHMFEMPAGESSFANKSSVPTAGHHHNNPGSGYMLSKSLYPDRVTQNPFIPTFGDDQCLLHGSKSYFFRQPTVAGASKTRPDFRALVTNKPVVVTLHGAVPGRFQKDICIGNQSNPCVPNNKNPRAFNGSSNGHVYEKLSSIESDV
Experimental: (§4) Effect of test compounds on the radioligand binding to NMDA receptors was determined by using a modified method as reported earlier by Zhou L-M and coworkers. Two radioactive ligands were used: [^3H] MK-801 (dizocilpine) with a specific activity of 210 Ci/mmol binding to all isolated NMDA receptors, and [^3H] ifenprodil with a specific activity of 79 Ci/mmol binding only to NMDA receptors containing the NR2B subunit.
(§5) A membrane preparation of hippocampus for radioligand analysis was prepared by the techniques described previously. The obtained membrane pellet was resuspended in a work buffer (5 mM HEPES/4.5 mM Tris buffer, pH 7.6) in a ratio of 1:5, and stored in liquid nitrogen. The reaction mixture (the final volume of 0.5 ml) contained 200 μl of the working buffer, 50 μl of 50 nM radioligand solution and 250 μl of the membrane suspension. Nonspecific binding was determined in the presence of 50 μl of […] of unlabeled ligand.
(§6) For binding study, the reaction mixture was incubated at room temperature for 2 hours. After incubation, the samples were filtered through the glass-fiber filters GF/B (Whatman), washed with the work buffer, dried and transferred to scintillation vials to which 5 ml of scintillation fluid was added containing 4g diphenyl oxazole (PPO), 0.2g diphenyloxazoil benzene (POPOP) and 1 liter of toluene. Radioactivity was determined in the scintillation counter TriCarb2800 TR (PerkinElmer, Packard, USA) with counting efficiency of about 65%.
(§7) Investigation of the effect of the tested compounds on the binding of [^3H]

[4] = molecular target: T2, butyrylcholinesterase (BChE, EC 3.1.1.8, from equine serum); assay: biochemical; type: biochemical; details: for αKi (non-competitive inhibition constant) / Ki: BChE, means ± SEM, at least three experiments; for Ki: read-out: Ki (competitive inhibition constant); for type of BChE inhibition: Lineweaver-Burk analysis
Experimental: The test compounds were preincubated with the enzymes at 25 °C for 10 min, followed by the addition of the substrates. Parallel controls were made for an assay of the rate of hydrolysis of the same concentrations of substrates in the solutions with no inhibitor. The kinetic parameters of substrate hydrolysis were determined. Measurements were performed in a BioRad Benchmark Plus microplate spectrophotometer (France). Each experiment was performed in triplicate.

[5] = molecular target: T4, МК-801 binding site of NMDA receptor (Rattus norvegicus, UniProt P35439); assay: Radioligand binding, [3H]MK-801 site of NMDA receptor, hippocampal membranes; details: for % of [3H]МК-801 blockade at 100 μM of compound: 100 μM compound
T4 construct: A membrane preparation of hippocampus for radioligand analysis was prepared; from tissue; host or cells: rat hippocampal membranes
Experimental: as §4, §5, §6, §7

[6] = molecular target: T5, Acetylcholinesterase (AChE, EC 3.1.1.7, from human erythrocyte) (Homo sapiens, UniProt P22303); assay: biochemical; type: biochemical
T5 construct: Acetylcholinesterase (AChE, EC 3.1.1.7, from human erythrocyte); purchased Sigma-Aldrich (Germany); host or cells: human erythrocytes
T5 sequence (P22303 other isoform, or with tags, fused parts or gaps): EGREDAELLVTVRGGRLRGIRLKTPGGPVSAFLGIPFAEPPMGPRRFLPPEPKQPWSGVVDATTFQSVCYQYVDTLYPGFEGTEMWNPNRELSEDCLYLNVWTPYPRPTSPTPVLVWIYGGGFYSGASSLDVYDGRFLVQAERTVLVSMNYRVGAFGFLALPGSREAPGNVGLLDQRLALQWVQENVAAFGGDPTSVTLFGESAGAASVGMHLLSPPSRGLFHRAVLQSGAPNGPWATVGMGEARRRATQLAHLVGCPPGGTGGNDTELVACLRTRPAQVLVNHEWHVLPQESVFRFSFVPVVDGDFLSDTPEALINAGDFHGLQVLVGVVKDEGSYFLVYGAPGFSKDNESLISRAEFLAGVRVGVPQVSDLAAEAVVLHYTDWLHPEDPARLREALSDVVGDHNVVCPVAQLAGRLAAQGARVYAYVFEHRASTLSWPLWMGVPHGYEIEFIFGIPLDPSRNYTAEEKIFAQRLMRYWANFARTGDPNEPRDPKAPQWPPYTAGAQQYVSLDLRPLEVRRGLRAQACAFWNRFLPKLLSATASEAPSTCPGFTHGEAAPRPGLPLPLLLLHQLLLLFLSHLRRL
Experimental: as §1, §3, §2

[7] = rat hippocampal membranes, read-out: [3H]ifenprodil, IC50
[8] = rat hippocampal membranes, read-out: [3H]МК-801, IC50
[9] = human erythrocyte AChE, pH 7.5, 25 °C, 10 min preincubation, read-out: IC50 (μM) ± SEM AChE
[10] = equine serum BChE, pH 7.5, 25 °C, 10 min preincubation, read-out: IC50 (μM) ± SEM BChE

Row | SMILES | IC50 [1] [µM] | IC50 [2] [µM] | % of [3H]ifenprodil blockade at 100 μM of compound ([3]; rat hippocampal membranes) [%] | IC50 [3, 7] [µM] | αKi (non-competitive inhibition constant) [4] [µM] | Ki [4] [nM] | % of [3H]МК-801 blockade at 100 μM of compound ([5]; rat hippocampal membranes) [%] | IC50 [5, 8] [µM] | IC50 [6, 9] [µM] | IC50 [2, 10] [µM] | IC50 [6] [µM] | type of BChE inhibition [4] | IC50 ([3]; read-out: [3H]ifenprodil, IC50, rat hippocampal membranes) [µM] | IC50 ([5]; read-out: [3H]МК-801, IC50, rat hippocampal membranes) [µM] | IC50 [3] [µM] | IC50 [5] [µM] | times higher BChE inhibitory activity versus (C-2b) ([2]; comparison of IC50 values, 1-oxopropylene vs 2-hydroxypropylene spacer, same R1, R2) [times]
1 | O=[N+]([O-])c1ccc(OP(=O)(O)Oc2ccc([N+](=O)[O-])cc2)cc1 [BNPP, Bis-4-nitrophenyl phosphate, reference compound] | 1.8 ± 0.11 | – | – | – | – | – | – | – | – | – | – | – | – | – | – | – | –
2 | c1ccc2c(c1)Nc1ccccc1S2 [phenothiazine] | – | 137 ± 31 | – | – | – | – | – | – | – | – | – | – | – | – | – | – | –
3 | CCc1ccc2c(c1)c1c(n2CCC(=O)N2c3ccccc3Sc3ccccc32)CCN(C)C1 [C-1g] | > 200 | – | 64.6 ± 5.2 | 15.4 ± 3.9 | 0.99 ± 0.04 | 460 ± 20 | 89.4 ± 4.6 | 13.2 ± 2.2 | > 100 | 1.36 ± 0.06 | – | – | – | – | – | – | –
4 | CN1CCc2c(c3cc(F)ccc3n2CCC(=O)N2c3ccccc3Sc3ccccc32)C1 [C-1c] | > 200 | – | 50.2 ± 5.2 | 55.1 ± 5.8 | 1.27 ± 0.41 | 480 ± 60 | 78.7 ± 1.4 | 17.7 ± 2.6 | > 200 | 1.79 ± 0.28 | – | – | – | – | – | – | –
5 | Cc1ccc2c(c1)c1c(n2CCC(=O)N2c3ccccc3Sc3ccccc32)CCN(C)C1 [C-1a] | > 200 | – | 42.6 ± 7.2 | 88.4 ± 8.3 | – | – | 80.4 ± 6.6 | 13.5 ± 3.6 | > 200 | 62.6 ± 4.3 | – | – | – | – | – | – | –
6 | Cc1ccc2c(c1)c1c(n2CC(O)CN2c3ccccc3Sc3ccccc32)CCN(C)C1 (racemic) [C-2a] | > 200 | – | 69.7 ± 8.3 | 57.2 ± 6.7 | – | – | – | 84.8 ± 9.2 | – | 11.7 ± 0.4 | – | – | – | – | – | – | –
7 | Cc1ccc2c(c1)c1c(n2CCc2ccc(C)nc2)CCN(C)C1 [dimebon, reference compound] | – | 5.76 ± 0.51 | 34.1 ± 4.9 | 82.4 ± 4.1 | – | – | 27.8 ± 3.9 | 91.5 ± 7.7 | – | – | 36.3 ± 5.8 | – | – | – | – | – | –
8 | CCN1CCc2c(c3cc(F)ccc3n2CC(O)CN2c3ccccc3Sc3ccccc32)C1 (racemic) [C-2b] | > 200 | – | 25.7 ± 4.6 | 81.2 ± 6.7 | 2.98 ± 0.19 | 820 ± 20 | 24.1 ± 1.9 | 106 ± 9.2 | – | 2.01 ± 0.04 | – | mixed-type inhibition; also recorded: mixed-type reversible inhibitors | – | – | – | – | –
9 | CN(C)c1ccc2nc3ccc(=[N+](C)C)cc-3sc2c1 [MB, methylene blue, reference compound] | – | – | – | – | 0.64 ± 0.02 | – | 2.0 ± 4.0 | – | – | – | – | – | – | – | – | – | –
10 | COc1ccc2c(c1)c1c(n2C[C@@H](O)CN2c3ccccc3Sc3ccccc32)CCN(C)C1 [C-2c] | – | – | 47.4 ± 6.6 | – | 0.89 ± 0.18 | 250 ± 40 | 19.1 ± 2.2 | – | – | 0.39 ± 0.02 | – | – | 115 ± 9.3 | 113 ± 11.1 | – | – | –
11 | CCN1CCc2c(c3cc(C)ccc3n2CCC(=O)N2c3ccccc3Sc3ccccc32)C1 [C-1b] | > 200 | – | 48.1 ± 5.9 | 74.4 ± 4 | 1.46 ± 0.40 | 430 ± 50 | 95.7 ± 1.0 | 8.5 ± 0.8 | > 200 | 2.04 ± 0.55 | – | – | – | – | – | – | –
12 | CC(C)c1ccc2c(c1)c1c(n2CCC(=O)N2c3ccccc3Sc3ccccc32)CCN(C)C1 [C-1h] | 120 ± 13 | – | – | 85.8 ± 7.2 | 1.94 ± 0.01 | – | 80.3 ± 6.9 | 17.8 ± 2 | > 100 | 2.79 ± 0.09 | – | non-competitive mechanism | – | – | – | – | –
13 | CCN1CCc2c(c3cc(F)ccc3n2CCC(=O)N2c3ccccc3Sc3ccccc32)C1 [C-1f] | – | – | 78.2 ± 6.8 | – | 0.52 ± 0.04 | 170 ± 20 | 82.4 ± 7.3 | – | > 200 | 0.58 ± 0.06 | – | mixed-type inhibition; also recorded: mixed-type reversible inhibitors | – | – | 8.8 ± 1.8 | 15.8 ± 1.8 | 3.5
14 | CCN1CCc2c(c3ccccc3n2CCC(=O)N2c3ccccc3Sc3ccccc32)C1 [C-1e] | > 200 | – | 69.4 ± 3.3 | 13.4 ± 2.6 | 0.65 ± 0.07 | 260 ± 20 | 76.1 ± 1.2 | 14.6 ± 1.9 | > 200 | 0.52 ± 0.01 | – | – | – | – | – | – | –
15 | CN1CCc2c(c3ccccc3n2CCC(=O)N2c3ccccc3Sc3ccccc32)C1 [C-1d] | > 200 | – | 60.1 ± 1.4 | 23.4 ± 0.7 | 1.64 ± 0.20 | 370 ± 10 | 74.9 ± 1.1 | 18.5 ± 0.9 | > 200 | 1.07 ± 0.12 | – | – | – | – | – | – | –
